{
  "source": "patent US11320434B2",
  "about": "“Method and apparatus for rapid detection of SARS-CoV-2” (priority 2020, dated 2022)",
  "key": {"[1]": {"target": "T1, K9K peptide ([…], SARS-CoV-2 spike protein position 1245 to 1255) (Severe acute respiratory syndrome coronavirus 2, UniProt P0DTC2)", "T1 construct": "purchased Innovagen AB", "type": "binding"}, "[2]": {"system": "tetracysteine-containing peptide", "details": "peptide-bound versus free FlAsH-EDT2; cited from earlier work"}},
  "data": [
    {"smiles": "O=C(O)c1ccccc1-c1c2ccc(=O)c([As]3SCCS3)c-2oc2c([As]3SCCS3)c(O)ccc12", "note": "[FlAsH, 2-(4,5-di(1,3,2-dithiarsolan-2-yl)-6-hydroxy-3-oxo-3H-xanthen-9-yl)benzoic acid]", "values": [
      {"measurement": "change of fluorescence after heating the mixture", "setting": "[1]", "value": "more than doubled"},
      {"measurement": "effect of a reducing agent on emitted fluorescence", "setting": "[1]", "value": "can be enhanced"},
      {"measurement": "emission of K9K-FlAsH versus FlAsH Control", "setting": "[1]", "value": "meaningfully greater"},
      {"measurement": "emitted fluorescence versus Control at K9K dilutions", "setting": "[1]", "value": "meaningful increases over the Control"},
      {"measurement": "fluorescence after prior oxidation of K9K cysteine residues by DTNB (Curve 2)", "setting": "[1]", "value": "prevents generation of fluorescence"},
      {"measurement": "fluorescence after treatment of oxidized K9K with TCEP (Curve 3)", "setting": "[1]", "value": "recovery of fluorescence"},
      {"measurement": "fluorescence on treatment of peptide K9K with FlAsH (Curve 1)", "setting": "[1]", "value": "rapidly generate intense fluorescence emission"},
      {"measurement": "fluorescence with TCEP and heating versus without TCEP or heating", "setting": "[1]", "value": "nearly six times greater"},
      {"measurement": "time at which emission of fluorescence begins", "setting": "[1]", "value": "≤ 15", "unit": "s"},
      {"measurement": "increase in fluorescence upon exchanging the EDTs for a tetracysteine-containing peptide", "setting": "[2]", "value": "more than 50,000 times"}
    ]}
  ]
}
